pIC50: −log10 of the molar value.
tested on: not given; test: not given; details: not given

Row | melting point [°C] | SMILES
1 | 60 to 61 | CC(C)(C)c1ccc(CNC(=O)NCc2ccc(NS(C)(=O)=O)c(Cl)c2)cc1 [Example 22, N-{4-[3-(4-t-butylbenzyl)ureidomethyl]-2-chlorophenyl}methane sulfonamide]

tested on: Male ICR mice; test: Analgesic activity test: mouse writhing test induced with phenyl-p-quinone; type: in vivo; details: dose 1 mg/kg intraperitoneally 30 min before phenyl-p-quinone 4.5 mg/kg i.p.; writhes counted 6-12 min after
Description: 2. Analgesic Activity Test: Mouse Writhing Test by Inducing with Phenyl-p-quinone
Male ICR mice (mean body weight 25 g) were maintained in a controlled lighting environment (12 h on/12 h off) for experiment. Animals received an intraperitoneal injection of 0.3 ml of the chemical irritant phenyl-p-quinone (dissolved in saline containing 5% ethanol to be a dose of 4.5 mg/kg) and 6 mins later, the number of abdominal constrictions was counted in the subsequent 6 mins period. Animals (10 animals/group) received 0.2 ml of test compounds solution in vehicle of ethanol/Tween 80/saline (10/10/80) intraperitoneally 30 min before the injection of phenyl-p-quinone. A reduction in the number of writhes responding to the test drug compound relative to the number responding in saline control group was considered to be indicative of an analgesic effect. Analgesic effect was calculated by % inhibition equation (% inhibition=(C−T)/C×100), wherein C and T represent the number of writhes in control and compound-treated group, respectively (Table 2).

Row | SMILES | Analgesic effect (% Inhibition)
2 | C/C(=C\c1ccc(C(C)(C)C)cc1)C(=O)N[C@H](C)c1ccc(NS(C)(=O)=O)cc1 [Example 11, 3-(4-t-Butylphenyl)-N-[1-(R)-(4-methanesulfonylaminophenyl)ethyl]-2-methylacrylamide] | 56
3 | C/C(=C\c1ccc(C(C)(C)C)cc1)C(=O)N[C@H](C)c1ccc(NS(C)(=O)=O)c(F)c1 [Example 14, 3-(4-t-Butyl-phenyl)-N-[1-(3-fluoro-4-methanesulfonylaminophenyl)ethyl]-2-methylacrylamide] | 42
4 | CC(C)(C)c1ccc(CNC(=O)NCc2ccc(NS(C)(=O)=O)c(F)c2)cc1 [Example 20, N-{4-[3-(4-t-butylbenzyl)ureidomethyl]-2-fluorophenyl}methanesulfonamide] | 82
5 | Cc1cc(CNC(=O)NCc2ccc(C(C)(C)C)cc2)ccc1NS(C)(=O)=O [Example 21, N-{4-[3-(4-t-butylbenzyl)ureidomethyl]-2-methylphenyl}methane sulfonamide] | 58
6 | Cc1cc(CNC(=O)NCc2ccc(C(C)(C)C)cc2)cc(F)c1NS(C)(=O)=O [Example 29, N-{4-[3-(4-t-Butyl-benzyl)-ureidomethyl]-2-fluoro-6-methyl-phenyl}-methanesulfonamide] | 54

molecular target: T1, vanilloid receptor (Rattus norvegicus, UniProt O35433); test: 45Ca influx test in primary cultured DRG neurons (capsaicin-induced calcium uptake); type: cell-based; details: neonatal SD rat DRG neurons; capsaicin 0.5 μM; 45Ca 10 μCi/ml; 10 min at room temperature
T1 construct: DRG nerve cells from the primary culture of 2 days were equilibrated; endogenous in cells; host or cells: primary culture of dorsal root ganglion neurons from neonatal SD rats
Description: 1) Separation of Spinal Dorsal Root Ganglia (DRG) in Newborn Rats and Primary Culture Thereof
Neonatal (2-3 day old or younger than 2-3 day old) SD rats were put in ice for 5 minutes to anesthetize and disinfected with 70% ethanol. DRG of all part of spinal cord were dissected (Wood et al., 1988, J. Neurosci. 8, pp 3208-3220) and collected in DME/F12 medium to which 1.2 g/l sodium bicarbonate, 50 mg/l gentamycin were added. The DRG were incubated sequentially at 37° C. for 30 min in 200 U/ml collagenase and 2.5 mg/ml trypsin, separately. The ganglia were washed twice with DME/F12 medium supplemented with 10% horse serum, triturated through a fire-polished Pasteur pipette, filtered through Nitex 80 membrane to obtain single cell suspension and the suspension was washed once more. This was subjected to centrifugation, then resuspended in cell culture medium at certain level of cell density. As the cell culture medium, DME/F12 medium supplemented with 10% horse serum was diluted with identical medium conditioned by C6 glioma cells 2 days on a confluent monolayer (1:1), and NGF (Nerve Growth Factor) was added to adjust 200 ng/ml as final concentration. After the cells were grown 2 days in medium where cytosine arabinoside (Ara-C, 100 μM) was added to kill dividing nonneuronal cells, medium was changed to one without Ara-C. The resuspended cells were plated at a density of 1500-2000 neurons/well onto Terasaki plates previously coated with 10 μg/ml poly-D-ornithine.
2) ^45Ca Influx Experiments
DRG nerve cells from the primary culture of 2 days were equilibrated by washing 4 times with HEPES (10 mM, pH 7.4)-buffered Ca^2+, Mg^2+-free HBSS (H-HBSS). The solution in each well was removed from the individual well. Medium containing the test compound plus capsaicin (final concentration 0.5 μM) and ^45Ca (final concentration 10 μCi/ml) in H-HBSS was added to each well and incubated at room temperature for 10 mins. Terasaki plates were washed five times with H-HBSS and dried at room temperature. To each well, 0.3% SDS (10 μl) was added to elute ^45Ca. After the addition of scintillation cocktail of into each well, the amount of ^45Ca influx into neuron was measured by counting radioactivity.

T1 sequence (O35433 whole entry): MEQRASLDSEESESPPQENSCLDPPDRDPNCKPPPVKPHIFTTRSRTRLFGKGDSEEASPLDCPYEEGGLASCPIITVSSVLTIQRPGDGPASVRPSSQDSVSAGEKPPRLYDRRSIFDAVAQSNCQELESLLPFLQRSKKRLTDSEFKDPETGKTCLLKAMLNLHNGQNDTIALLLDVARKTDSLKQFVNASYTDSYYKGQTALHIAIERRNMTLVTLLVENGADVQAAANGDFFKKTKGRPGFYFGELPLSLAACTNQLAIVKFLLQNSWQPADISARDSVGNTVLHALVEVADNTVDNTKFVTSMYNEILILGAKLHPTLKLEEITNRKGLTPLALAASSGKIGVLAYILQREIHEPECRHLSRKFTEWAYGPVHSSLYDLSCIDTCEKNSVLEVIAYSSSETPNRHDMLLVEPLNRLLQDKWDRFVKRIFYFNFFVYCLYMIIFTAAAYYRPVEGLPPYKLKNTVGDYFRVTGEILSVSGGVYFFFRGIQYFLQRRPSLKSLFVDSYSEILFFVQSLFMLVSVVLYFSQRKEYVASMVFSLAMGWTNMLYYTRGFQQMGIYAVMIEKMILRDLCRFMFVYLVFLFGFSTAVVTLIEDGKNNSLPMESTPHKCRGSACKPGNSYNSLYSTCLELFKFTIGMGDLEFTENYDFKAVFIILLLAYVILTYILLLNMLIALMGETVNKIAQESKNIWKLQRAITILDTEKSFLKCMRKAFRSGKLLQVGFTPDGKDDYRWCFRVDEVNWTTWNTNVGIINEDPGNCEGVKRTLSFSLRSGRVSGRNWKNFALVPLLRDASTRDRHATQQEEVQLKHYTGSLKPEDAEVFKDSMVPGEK

Row | SMILES | pIC50
7 | Cc1cc(CNC(=O)/C=C/c2ccc(C(C)(C)C)cc2)ccc1NS(C)(=O)=O [Example 3, 3-(4-t-Butyl-phenyl)-N-(3-methyl-4-methanesulfonylamino-benzyl)-acrylamide] | 6.54
8 | CC(C)(C)c1ccc(/C=C/C(=O)NCc2cc(Cl)c(NS(C)(=O)=O)c(I)c2)cc1 [Example 6, 3-(4-t-Butylphenyl)-N-(3-chloro-5-iodo-4-methanesulfonylamino-benzyl)acrylamide] | 6.46
9 | CC(C)(C)c1ccc(/C=C/C(=O)NCc2cc(F)c(NS(C)(=O)=O)c(I)c2)cc1 [Example 8, 3-(4-t-butylphenyl)-N-(3-fluoro-5-iodo-4-methanesulfonylaminobenzyl)acrylamide] | 6.74
10 | Cc1cc(CNC(=O)/C=C/c2ccc(C(C)(C)C)cc2)cc(F)c1NS(C)(=O)=O [Example 9, 3-(4-t-Butyl-phenyl)-N-(3-fluoro-4-methanesulfonylamino-5-methyl-benzyl)-acrylamide] | 6.44
11 | C/C(=C\c1ccc(C(C)(C)C)cc1)C(=O)NCc1ccc(NS(C)(=O)=O)cc1 [Example 10, 3-(4-t-butylphenyl)-N-(4-methanesulfonylaminobenzyl)-2-methyl-acrylamide] | 6.36
12 | C/C(=C\c1ccc(C(C)(C)C)cc1)C(=O)N[C@H](C)c1ccc(NS(C)(=O)=O)cc1 [Example 11, 3-(4-t-Butylphenyl)-N-[1-(R)-(4-methanesulfonylaminophenyl)ethyl]-2-methylacrylamide] | 7.34
13 | C/C(=C\c1ccc(C(C)(C)C)cc1)C(=O)NCc1ccc(NS(C)(=O)=O)c(F)c1 [Example 12, 3-(4-t-Butylphenyl)-N-(3-fluoro-4-methanesulfonylaminobenzyl)-2-methylacrylamide] | 6.92
14 | C/C(=C\c1ccc(C(C)(C)C)cc1)C(=O)N[C@H](C)c1ccc(NS(C)(=O)=O)c(F)c1 [Example 14, 3-(4-t-Butyl-phenyl)-N-[1-(3-fluoro-4-methanesulfonylaminophenyl)ethyl]-2-methylacrylamide] | 7.39
15 | CC(C)(C)c1ccc(C#CC(=O)NCc2ccc(NS(C)(=O)=O)cc2)cc1 [Example 15, 3-(4-t-butylphenyl)-N-[4-(methanesulfonylamino)benzyl]propiolicamide] | 6.23
16 | CC(C)(C)c1ccc(CNC(=O)NCc2cc(F)c(NS(C)(=O)=O)c(I)c2)cc1 [Example 17, N-{4-[3-(4-t-butylbenzyl)ureidomethyl]-2-fluoro-6-iodophenyl}methanesulfonamide] | 6.54
17 | CC(C)(C)c1ccc(CNC(=O)NCc2cc(I)c(NS(C)(=O)=O)cc2Cl)cc1 [Example 18, N-{4-[3-(4-t-butylbenzyl)ureidomethyl]-5-chloro-2-Iodophenyl}methanesulfonamide] | 6.28
18 | CCc1cc(CNC(=O)NCc2ccc(C(C)(C)C)cc2)cc(F)c1NS(C)(=O)=O [Example 19, N-{4-[3-(4-t-butylbenzyl)ureidomethyl]-2-ethyl-6-fluorophenyl}methanesulfonamide] | 6.82
19 | Cc1cc(CNC(=O)NCc2ccc(C(C)(C)C)cc2)ccc1NS(C)(=O)=O [Example 21, N-{4-[3-(4-t-butylbenzyl)ureidomethyl]-2-methylphenyl}methane sulfonamide] | 7.08
20 | CC(C)(C)c1ccc(CNC(=O)NCc2ccc(NS(C)(=O)=O)c(Cl)c2)cc1 [Example 22, N-{4-[3-(4-t-butylbenzyl)ureidomethyl]-2-chlorophenyl}methane sulfonamide] | 6.62
21 | CC(C)(C)c1ccc(CNC(=O)NCc2ccc(NS(C)(=O)=O)c([N+](=O)[O-])c2)cc1 [Example 23, N-{4-[3-(4-t-butylbenzyl)ureidomethyl]-2-nitrophenyl}methane sulfonamide] | 6.62
22 | Cc1cc(CNC(=O)NCc2ccc(C(C)(C)C)cc2)cc(Cl)c1NS(C)(=O)=O [Example 27, N-{4-[3-(4-t-Butylbenzyl)ureidomethyl]-2-chloro-6-methylphenyl}methanesulfonamide] | 6.72
23 | CCc1cc(CNC(=O)NCc2ccc(C(C)(C)C)cc2)c(Cl)cc1NS(C)(=O)=O [Example 28, N-{4-[3-(4-t-Butylbenzyl)-ureidomethyl]-5-chloro-2-ethylphenyl}methanesulfonamide] | 6.54
24 | Cc1cc(CNC(=O)NCc2ccc(C(C)(C)C)cc2)cc(F)c1NS(C)(=O)=O [Example 29, N-{4-[3-(4-t-Butyl-benzyl)-ureidomethyl]-2-fluoro-6-methyl-phenyl}-methanesulfonamide] | 7.14

Other lines, results leading:

Row | pIC50 | SMILES
25 | 6.25 | CC(C)(C)c1ccc(CNC(=O)NCc2cc(F)c(NS(C)(=O)=O)cc2F)cc1 [Example 26, N-{4-[3-(4-t-Butyl-benzyl)-ureidomethyl]-2,5-difluoro-phenyl}-methanesulfonamide]
26 | 6.33 | CC(C)(C)c1ccc(CNC(=O)NCc2cc(F)c(NS(C)(=O)=O)c(F)c2)cc1 [Example 25, N-{4-[3-(4-t-Butyl-benzyl)-ureidomethyl]-2,6-difluoro-phenyl}-methanesulfonamide]
27 | 6.41 | CC(C)(C)c1ccc(CNC(=O)NCc2ccc(NS(C)(=O)=O)c(I)c2)cc1 [Example 24, N-{4-[3-(4-t-Butyl-benzyl)-ureidomethyl]-2-iodo-phenyl}-methanesulfonamide]
28 | 6.44 | Cc1cc(CNC(=O)/C=C/c2ccc(C(C)(C)C)cc2)cc(Cl)c1NS(C)(=O)=O [Example 7, 3-(4-t-Butyl-phenyl)-N-(3-chloro-4-methanesulfonylamino-5-methylbenzyl)acrylamide]
29 | 6.51 | CC(C)(C)c1ccc(/C=C/C(=O)NCc2cc(F)c(NS(C)(=O)=O)c(F)c2)cc1 [Example 4, 3-(4-t-Butyl-phenyl)-N-(3,5-difluoro-4-methanesulfonylamino-benzyl)-acrylamide]
30 | 6.59 | CC(C)(C)c1ccc(/C=C/C(=O)NCc2ccc(NS(C)(=O)=O)c(Cl)c2)cc1 [Example 2, 3-(4-t-Butyl-phenyl)-N-(3-chloro-4-methanesulfonylamino-benzyl)-acrylamide]
31 | 6.68 | CC(C)(C)c1ccc(/C=C/C(=O)NCc2cc(F)c(NS(C)(=O)=O)cc2F)cc1 [Example 5, 3-(4-t-Butyl-phenyl)-N-(2,5-difluoro-4-methanesulfonylamino-benzyl)-acrylamide]
32 | 6.82 | C/C(=C\C(=O)NCc1ccc(NS(C)(=O)=O)c(F)c1)c1ccc(C(C)(C)C)cc1 [Example 13, 3-(4-t-Butyl-phenyl)-but-2-enoic acid 3-fluoro-4-methanesulfonylamino-benzylamide]
33 | 7.00 | C[C@@H](NC(=O)C#Cc1ccc(C(C)(C)C)cc1)c1ccc(NS(C)(=O)=O)cc1 [Example 16, 3-(4-t-butylphenyl)-N-[1-(R)-(4-methanesulfonylaminophenyl)ethyl]propiolicamide]

— patent US7960584B2, “Compounds, isomer thereof, or pharmaceutically acceptable salts thereof as vanilloid receptor antagonist; and pharmaceutical compositions containing the same” (Amorepacific Corporation, priority 2005, dated 2011)
